Converted amounts (≈) assume the structure as drawn. The source made the active and inactive calls. The rule behind the calls is not given here.
Key:
Helicoverpa zea = assay: Insecticidal activity against Helicoverpa zea assessed as reduction in growth rate; assay type: functional, organism-based
Carpophilus [1] = assay: Antiinsectan activity against adult Carpophilus hemipterus assessed as feeding reduction at 100 ppm administered through test diet relative to control; assay type: functional
Carpophilus [2] = assay: Antiinsectan activity against Carpophilus hemipterus larvae assessed as feeding reduction at 100 ppm administered through test diet relative to control; assay type: functional
HT-29 = assay: Cytotoxicity against human HT-29 cells; assay type: functional; conditions: read-out: ED50 (the source's name)
Candida albicans = assay: Antifungal activity against Candida albicans at 100 ug/disk by standard disk assay; assay type: functional, organism-based
Carpophilus [3] = assay: Insecticidal activity against Carpophilus hemipterus; assay type: functional, organism-based
Staphylococcus aureus = assay: Antibacterial activity against Staphylococcus aureus at 100 ug/disk by standard disk assay; assay type: functional, organism-based
A549 = assay: Cytotoxicity against human A549 cells; assay type: functional; conditions: read-out: ED50 (the source's name)
MCF7 = assay: Cytotoxicity against human MCF7 cells; assay type: functional; conditions: read-out: ED50 (the source's name)
Bacillus subtilis = assay: Antibacterial activity against Bacillus subtilis at 100 ug/disk by standard disk assay; assay type: functional, organism-based

| SMILES | Activity (Helicoverpa zea) | Activity (Carpophilus [1]) | Activity (Carpophilus [2]) | EC50 (HT-29) | Activity (Candida albicans) | Activity (Carpophilus [3]) | Activity (Staphylococcus aureus) | EC50 (A549) | EC50 (MCF7) | Activity (Bacillus subtilis) |
| --- | --- | --- | --- | --- | --- | --- | --- | --- | --- | --- |
| C=CC(C)(C)c1ccc2[nH]c3c(c2c1)C[C@@H]1CC[C@@]2(O)C4=CC(=O)[C@@H]5O[C@]4(CC[C@]2(C)[C@@]31C)OC5(C)C | Active |  |  |  |  |  |  |  |  |  |
| COc1cc(C)c2c(OC)cc(=O)oc2c1-c1c(O)cc(C)c2c(OC)cc(=O)oc12 |  | inactive | inactive |  |  |  |  |  |  |  |
| COc1cc(CO)c2c(OC)c(-c3c(OC)cc(C)c4c(OC)cc(=O)oc34)c(=O)oc2c1 [AFLAVARIN] |  | 66% | 53% | 5.8 µg/mL (≈ 12.8 µM) | inactive | Active | inactive | 7.5 µg/mL (≈ 16.5 µM) | 55 µg/mL (≈ 121 µM) | inactive |

— ChEMBL document CHEMBL1149731, “Aflavarin and -Aflatrem: New Anti-Insectan Metabolites from the Sclerotia of Aspergillus flavus” (1992)
